Source: patent publication US20240293579A1, “Composition Comprising Trim31 and Rhbdf2 for Treatment of NAFLD/NASH” (CHONGQING MEIPULAN TECHNOLOGY CO., LTD, priority 2021, published 2024)
Like-named read-outs stand apart in the source and are kept apart here.

Legend:
[1] = test system: Mice with a NASH phenotype (THTG-HFHF); experiment: Carminic acid in mice with a NASH phenotype (THTG-HFHF), liver mRNA and protein levels; format: in vivo; conditions: 16 weeks
Source text: (§1) To further investigate the protective effects of Trim31 on liver steatosis, a nonalcoholic steatohepatitis (NASH) mice model was established in accordance with previous reports (Xu Min-Xuan,Tan Jun, et al., Journal of Hazardous Materials, 2020, 400: 123158). The THTG mice were then fed with HFHF diet (14% protein, 42% fat, 44% carbohydrates, 0.2% cholesterol and with a total of 42 g/L of carbohydreate mixed in drinking water at a ratio of 55% fructose and 45% sucrose by weight) for 16 weeks to produce phenotype of NASH. Also, the NTG mice used in this design as controls and were synchronously allowed to ad libitum access to this diet for 16 weeks.
(§2) Based on the effective protective effect of Trim31 in NAFLD, we accordingly investigated the therapeutic feasibility and effect of targeting the Trim31-Rhbdf2-MAP3K7 pathway in the development and progression of NASH. The THTG mice were then fed with an HFHF diet containing 14% protein, 42% fat, 44% carbohydrates, and 0.2% cholesterol and with a total of 42 g/L of carbohydrate mixed in drinking water at a ratio of 55% fructose and 45% sucrose by weight, for 16 weeks to generate mice with a NASH phenotype (THTG-HFHF).
Mice with a NASH phenotype (THTG-HFHF) were constructed according to the protocol described in Example 10. The control group (Ctrl), NASH-THTG group (Fru), low dose group (CAL, 0.5% CA+Fru), high dose group (CAH, 1% CA+Fru) were set up. The drug group was treated with 0.5% and 1% carminic acid (CA) by gavage.

TRIM31 mRNA = TRIM31 mRNA expression by RT-qPCR in PA/OA-induced L02 cells; format: cell-based, human; conditions: for fold induction at 100 µM: Homo sapiens
Description: Palmitic acid/oleic acid (PA/OA) was used to induce the decrease of TRIM31 mRNA expression in human hepatocyte L02 cells. The cells were divided into control group and drug group. The drug group was treated with a concentration of 100 μmol/L compound, and the expression level of TRIM31 mRNA was detected by RT-qPCR. The expression level of TRIM31 mRNA in the drug group divided by that in the control group (Qdrug/Qctrl) was used to evaluate the ability of the compounds to promote TRIM31 expression. […]

[2] = test system: Mice with a NASH phenotype (THTG-HFHF); experiment: Fisetin in mice with a NASH phenotype (THTG-HFHF), liver mRNA levels; format: in vivo; conditions: 16 weeks
Source text: as §1, §2
Mice with a NASH phenotype (THTG-HFHF) were constructed according to the protocol described in Example 10. A control group (Ctrl), a NASH group (THTG), and three drug groups (FIS) were set up. The three drug groups (FIS) were treated with 20 mg/kg, 40 mg/kg and 80 mg/kg fisetin (FIS) by gavage.

[3] = test system: Mice with a NASH phenotype (THTG-HFHF); experiment: Betacyanin in mice with a NASH phenotype (THTG-HFHF), liver protein expression; format: in vivo; conditions: 0.2 g/kg mixed with feed, 16 weeks
Source text: as §1, §2
Mice with a NASH phenotype (THTG-HFHF) were constructed according to the protocol described in Example 10. A control group (Ctrl), a NASH group (THTG), and a drug group (BCN) were set up. The drug group was fed with 0.2 g/kg betacyanin (BCN) mixed with feed.

[4] = 100 μmol/L compound, PA/OA-induced L02 cells, RT-qPCR, read-out: Qdrug/Qctrl (TRIM31 mRNA expression level, drug group divided by control group)
[5] = 100 μmol/L compound, PA/OA-induced L02 cells, RT-qPCR
[6] = L02, read-out: Qdrug/Qctrl (TRIM31 mRNA expression level, drug group divided by control group)

| Compound | fold induction at 100 µM (TRIM31 mRNA; [4]) | Qdrug/Qctrl (TRIM31 mRNA expression level, drug group divided by control group) (TRIM31 mRNA; [5]) | also measured |
| --- | --- | --- | --- |
| Cc1c(C(=O)O)c(O)cc2c1C(=O)c1c(O)c([C@@H]3O[C@H](CO)[C@@H](O)[C@H](O)[C@H]3O)c(O)c(O)c1C2=O [Carminic acid] | 2.78 |  | Collagen I mRNA level in liver ([1]; 0.5% and 1% CA by gavage): significantly decreased; Keap1 protein in liver ([1]; 0.5% and 1% CA by gavage): significantly decreased; MMP-9 mRNA level in liver ([1]; 0.5% and 1% CA by gavage): significantly decreased; TGF-β1 mRNA level in liver ([1]; 0.5% and 1% CA by gavage): significantly decreased; TRIM31 protein expression in liver ([1]; 0.5% and 1% CA by gavage): significantly increased; α-SMA mRNA level in liver ([1]; 0.5% and 1% CA by gavage): significantly decreased; liver fibrosis and inflammation ([1]; gavage): effectively alleviated; these indexes (fibrosis genes, Keap1, TRIM31) versus control group ([1]; high dose group (CAH, 1% CA)): close to the normal level of the control group |
| O=c1c(O)c(-c2ccc(O)c(O)c2)oc2cc(O)ccc12 [Fisetin] | 3.27 |  | Collagen I mRNA level in liver ([2]; 20, 40 and 80 mg/kg by gavage): significantly decreased; Fibronectin mRNA level in liver ([2]; 20, 40 and 80 mg/kg by gavage): significantly decreased; TGF-β1 mRNA level in liver ([2]; 20, 40 and 80 mg/kg by gavage): significantly decreased; TRIM31 mRNA level in liver ([2]; 20, 40 and 80 mg/kg by gavage): significantly increased; α-SMA mRNA level in liver ([2]; 20, 40 and 80 mg/kg by gavage): significantly decreased; liver fibrosis and inflammation ([2]; gavage): significantly alleviated; these indexes (fibrosis gene and TRIM31 mRNA levels) versus control group ([2]; high dose group (80 mg/kg)): close to the normal level of the control group |
| O[C@H]1CCN2Cc3ccccc3N=C12 [Peganine] |  | 1.34 fold |  |
| C[C@H]1CC[C@@H]2N(C1)C[C@H]1[C@@H]3C[C@H]4[C@@H](C[C@H](O)[C@H]5C[C@@H](O)CC[C@@]54C)[C@@H]3CC[C@@H]1[C@]2(C)O [Peimine] |  | 1.31 fold |  |
| Oc1ccc(-c2[o+]c3cc(O)cc(O)c3cc2O)cc1 [Pelargonidin] | 2.78 |  |  |
| CC(C)(S)[C@@H](N)C(=O)O [Penicillamine, reference compound] |  |  | fold induction at 100 µM (TRIM31 mRNA; [6]): 1.72 |
| O=C(/C=C/C=C/c1ccc2c(c1)OCO2)N1CCCCC1 [Piperine] |  |  | fold induction at 100 µM (TRIM31 mRNA; [6]): 1.8 |
| Nc1cccc2c1C(=O)N(C1CCC(=O)NC1=O)C2=O (centres unmarked) [Pomalidomide, reference compound] | 1.49 |  |  |
| O=c1c(-c2ccc(O)cc2)coc2c([C@@H]3O[C@H](CO)[C@@H](O)[C@H](O)[C@H]3O)c(O)ccc12 [Puerarin] | 2.72 |  |  |
| O=c1c(O)c(-c2ccc(O)c(O)c2)oc2cc(O)cc(O)c12 [Quercetin] | 3.38 |  |  |
| CNC(=O)c1cc(Oc2ccc(NC(=O)Nc3ccc(Cl)c(C(F)(F)F)c3)c(F)c2)ccn1 [Regorafenib, reference compound] | 2.79 |  |  |
| Oc1ccc(C=Cc2cc(O)cc(O)c2)cc1 [Resveratrol] |  |  | fold induction at 100 µM (TRIM31 mRNA; [6]): 3.66 |
| CC[C@H]1CN2CC[C@]3(C(=O)Nc4ccccc43)[C@@H]2C[C@@H]1/C(=C\OC)C(=O)OC [Rhynchophylline] |  |  | fold induction at 100 µM (TRIM31 mRNA; [6]): 1.92 |
| C[C@@H]1O[C@@H](OC[C@H]2O[C@@H](Oc3c(-c4ccc(O)c(O)c4)oc4cc(O)cc(O)c4c3=O)[C@H](O)[C@@H](O)[C@@H]2O)[C@H](O)[C@H](O)[C@H]1O [Rutin] | 2.86 |  |  |
| O=c1cc(-c2ccc(O)cc2)oc2cc(O)c(O)c(O)c12 [Scutellarein] |  |  | fold induction at 100 µM (TRIM31 mRNA; [6]): 3.2 |
| COC(=O)C1=CO[C@@H](C)[C@H]2Cn3ccc4c5ccccc5nc-4c3C[C@H]12 [Serpentine] |  | 1.33 fold |  |
| COc1cc(C2Oc3cc([C@H]4Oc5cc(O)cc(O)c5C(=O)[C@@H]4O)ccc3OC2CO)ccc1O (some centres unmarked) [Silibinin] | 3.12 |  |  |
| O=C1CCC[C@@H]2[C@H]3CCCN4CCC[C@@H](CN12)[C@@H]34 [Sophocarpidine] |  | 1.30 fold |  |

| Compound | fold induction at 100 µM (TRIM31 mRNA; [4]) | Qdrug/Qctrl (TRIM31 mRNA expression level, drug group divided by control group) (TRIM31 mRNA; [5]) | also measured |
| --- | --- | --- | --- |
| CNC(=O)c1cc(Oc2ccc(NC(=O)Nc3ccc(Cl)c(C(F)(F)F)c3)cc2)ccn1 [Sorafenib, reference compound] | 2.86 |  |  |
| C[C@H](CCC(=O)NCCS(=O)(=O)O)[C@H]1CC[C@H]2[C@@H]3[C@H](O)C[C@@H]4C[C@H](O)CC[C@]4(C)[C@H]3CC[C@]12C [Taurochenodeoxycholic acid] |  | 2.51 fold |  |
| C[C@H](CCC(=O)NCCS(=O)(=O)O)[C@H]1CC[C@H]2[C@@H]3[C@@H](O)C[C@@H]4C[C@H](O)CC[C@]4(C)[C@H]3CC[C@]12C [Tauroursodeoxycholic acid, reference compound] | 2.77 |  |  |
| COc1cc2c(cc1OC)[C@@H]1Cc3ccc(OC)c(OC)c3CN1CC2 [Tetrahydropalmatine] |  |  | fold induction at 100 µM (TRIM31 mRNA; [6]): 1.76 |
| COc1ccc2cc1Oc1ccc(cc1)C[C@H]1c3cc(c(OC)cc3CCN1C)Oc1c(OC)c(OC)cc3c1[C@H](C2)N(C)CC3 [Tetrandrine] | 1.56 |  |  |
| O=C1CCC(N2C(=O)c3ccccc3C2=O)C(=O)N1 (centres unmarked) [Thalidomide, reference compound] |  |  | fold induction at 100 µM (TRIM31 mRNA; [6]): 1.88 |
| COc1cc(-c2cc(=O)c3c(O)cc(O)cc3o2)cc(OC)c1O [Tricin] |  |  | fold induction at 100 µM (TRIM31 mRNA; [6]): 2.9 |
| C[C@H](CCC(=O)O)[C@H]1CC[C@H]2[C@@H]3[C@@H](O)C[C@@H]4C[C@H](O)CC[C@]4(C)[C@H]3CC[C@]12C [Ursodesoxycholic acid, reference compound] | 2.85 |  |  |
| COc1c(O)cc(O)c2c(=O)cc(-c3ccccc3)oc12 [Wogonin] | 3.05 |  |  |
| O=c1cc(-c2ccc(O)c(O)c2)oc2cc(O[C@@H]3O[C@H](CO)[C@@H](O)[C@H](O)[C@H]3O)cc(O)c12 [luteolin 7-O-β-D-glucoside] |  | 2.83 fold |  |
| Anthocyanidin |  | 3.68 fold |  |
| Betacyanin |  | 3.14 fold | Collagen I protein expression level in liver [3]: significantly reduced; Keap1 protein expression level in liver [3]: significantly reduced; TGF-β1 protein expression level in liver [3]: significantly reduced; TRIM31 protein expression in liver [3]: increased; liver fibrosis and inflammation [3]: effectively alleviated |
| Breviscapine |  | 3.29 fold |  |
| Catechin |  | 3.21 fold |  |
| Cynarascoloside C |  | 2.34 fold |  |
| Orixine |  | 1.69 fold |  |
| Proanthocyanidin |  | 3.12 fold |  |
| Punicosides |  | 2.64 fold |  |
